The source of these data is US20130280258A1, “PROGNOSTIC, DIAGNOSTIC, AND CANCER THERAPEUTIC USES OF FANCI AND FANCI MODULATING AGENTS” (Miltenyi Biotec GmbH, priority 2007, published 2013).

Molecules are shown by their SMILES.

The test has as its system U2OS cells. Kind of test: Multicolor competition assay (MCA) of DNA damage sensitivity. The class given is cell-based. To be noted: 7 days of culture, read-out: concentration resulting in about 50% survival of non-transfected cells. Here is the method:
U2OS cells were infected with MSCVgfp or MSCVdsRed, which were packaged in 293T by co-transfection with VSVG vector using TransIT-293 (Minis). Without selection, the cells were sorted using the Aria Sorter (BD) for intermediate expression. The gfp cells grew slightly faster than the rfp cells and this was taken into account when calculating the changes in survival due to treatment with DNA damaging agents. siRNA transfections were performed as described above with gfp cells being transfected with a control siRNA (luciferase) and rfp cells with an siRNA of interest. On the third day after transfections, gfp and rfp cells were counted and mixed in 1 to 1 ratio and were left untreated or were treated with IR or MMC. The concentration of Mitomycin C (Sigma) was chosen to result in about 50% survival of non-transfected cells, which was about 70 nM MMC for U2OS cells. After 7 days of culture, all cells were collected and analyzed using Cytomix FC500 Analyzer (Beckman Coulter). […]
Two populations of U20S (osteosarcoma) cells differing only in their color were created by expression of red fluorescent protein (RFP) or green fluorescent protein (GFP). siRNA depletion of the protein of interest was carried out in the […] were transfected with control siRNA. […] After 7 days, cells were harvested and a ratio of red to green cells was determined using flow cytometry. […]

Turning to `CO[C@@]12[C@H](COC(N)=O)C3=C(C(=O)C(C)=C(N)C3=O)N1C[C@@H]1N[C@@H]12` [Mitomycin C], the IC50 was about 70 nM.
